Assay results: article PMC10033419, “Blocking NS3–NS4B interaction inhibits dengue virus in non-human primates” (Nature, 2023)
Several values for one entry are separate records, joined by “and”; a condition that tells them apart may be missing. Equal values may be shown once. Read-outs that look alike come from different tables or passages of the source.

Experiments:
MTS/PMS toxicity assay = assay type: cell-based, African green monkey; conditions: African green monkey, Vero cells
Protocol: (§1) A potential toxic effect on host cells was tested in parallel, while omitting virus infection, using the MTS/PMS method (Promega) for Vero cells, or by high-content imaging for C6/36 cells, as described previously. […] RT–qPCR data were analysed using the QuantStudio 12K Flex software (v.1.2.3) or SDS v.1.2 Applied Biosystems software. Inhibition values for antiviral molecules were plotted using KaleidaGraph plotting software (v.4.03, Synergy Software).

Vero cells = assay: MTS/PMS toxicity assay; assay type: cell-based, African green monkey; conditions: EXP1-EXP3, read-out: CC50, single experiments
Protocol: as §1

[1] = tested on: NS4A-2K-NS4B precursor cleavage; assay: microbe, parasite or virus in culture; assay type: cell-based, DENV-2
DENV-2/16681 = assay: NHP DENV-2 study, anti-DENV IgM ELISA; design: species or system rhesus macaques (M. mulatta); conditions: rhesus monkey, in vivo
DENV-1/45AZ5 = assay: NHP DENV-1 study, IgM/IgG ELISA; conditions: for IgG ELISA Titer / IgM ELISA Titer: Negative = 100

COc1cc(N[C@H](C(=O)c2c[nH]c3ccc(OC(F)(F)F)cc23)c2ccc(Cl)cc2OC)cc(S(C)(=O)=O)c1 [JNJ-1802]
CC50 (MTS/PMS toxicity assay; EXP1-EXP3, read-out: CC50, single experiments): 2770 nM | CC50 (MTS/PMS toxicity assay; Vero, read-out: CC50): > 2260 nM | CC50 (MTS/PMS toxicity assay; mean, read-out: CC50 MEAN): > 2300 nM | CC50 (MTS/PMS toxicity assay; median, read-out: CC50 MEDIAN): > 2000 nM | CC50 (Vero cells): > 2000 nM | EC50 ([1]; Dengue virus, read-out: EC50 2k-4B Input, Mean, WT): 1.72 nM | 2K-NS4B proportion in lysate ([1]; L94F, 10 nM): 18.25% and 11.99% and 16.55% | 2K-NS4B proportion in lysate ([1]; L94F, 500 nM): 4.03% and 6.25% and 1.49% | NS4A-2K-NS4B proportion in lysate ([1]; L94F, 500 nM): 75.65% and 50.22% and 78.28% | 2K-NS4B proportion in lysate ([1]; L94F, 1000 nM): 3.64% and 2.91% and 2.22% | NS4A-2K-NS4B proportion in lysate ([1]; L94F, 1000 nM): 77.84% and 43.16% and 74.46% | EC50 ([1]; L94F, read-out: EC50 2k-4B Input, Mean): 108 nM | 2K-NS4B proportion in lysate ([1]; T108I, 0.5 nM): 23.11% and 13.79% and 13.87% | NS4A-2K-NS4B proportion in lysate ([1]; T108I, 0.5 nM): 44.71% and 43.02% and 68.40% | NS4A-2K-NS4B proportion in lysate ([1]; T108I, 1 nM): 72.39% and 47.37% and 49.13% | 2K-NS4B proportion in lysate ([1]; T108I, 5 nM): 9.35% and 15.53% and 10.95% | NS4A-2K-NS4B proportion in lysate ([1]; T108I, 5 nM): 71.83% and 55.33% and 51.65% | NS4B proportion in lysate ([1]; T108I, 5 nM): 18.83% and 29.14% and 37.41% | 2K-NS4B proportion in lysate ([1]; T108I, 10 nM): 5.10% and 8.23% and 10.83% | NS4A-2K-NS4B proportion in lysate ([1]; T108I, 10 nM): 71.88% and 68.85% and 55.44% | NS4B proportion in lysate ([1]; T108I, 10 nM): 23.02% and 22.91% and 33.72% | 2K-NS4B proportion in lysate ([1]; T108I, 50 nM): 3.79% and 3.62% and 3.12% | NS4A-2K-NS4B proportion in lysate ([1]; T108I, 50 nM): 72.18% and 59.64% and 51.99% | NS4B proportion in lysate ([1]; T108I, 50 nM): 24.02% and 36.74% and 44.89% | EC50 ([1]; T108I, single replicates, read-out: EC50 (2k-4B), Input): 6.08 nM and 6.88 nM and 20.9 nM | EC50 ([1]; T108I, read-out: EC50 2k-4B Input, Mean): 11.3 nM | 2K-NS4B proportion in lysate ([1]; V91A, 10 nM): 18.41% and 10.69% and 19.20% | 2K-NS4B proportion in lysate ([1]; V91A, 50 nM): 12.06% and 15.08% and 7.29% | 2K-NS4B proportion in lysate ([1]; V91A, 100 nM): 6.22% and 11.02% and 2.95% | 2K-NS4B proportion in lysate ([1]; V91A, 500 nM): 2.16% and 3.56% and 1.47% | NS4A-2K-NS4B proportion in lysate ([1]; V91A, 500 nM): 73.60% and 43.02% and 80.18% | 2K-NS4B proportion in lysate ([1]; V91A, 1000 nM): 2.06% and 2.88% and 1.78% | EC50 ([1]; V91A, single replicates, read-out: EC50 (2k-4B), Input): 44.9 nM and 134 nM and 55.6 nM | EC50 ([1]; V91A, read-out: EC50 2k-4B Input, Mean): 78 nM | 2K-NS4B proportion in lysate ([1]; WT, 0.5 nM): 20.47% and 12.95% and 13.02% | NS4A-2K-NS4B proportion in lysate ([1]; WT, 0.5 nM): 48.09% and 36.63% and 65.93% | 2K-NS4B proportion in lysate ([1]; WT, 1 nM): 5.60% and 9.33% and 12.10% | NS4A-2K-NS4B proportion in lysate ([1]; WT, 1 nM): 66.81% and 44.14% and 43.57% | NS4B proportion in lysate ([1]; WT, 1 nM): 27.59% and 46.53% and 44.33% | 2K-NS4B proportion in lysate ([1]; WT, 5 nM): 3.71% and 6.95% and 6.88% | NS4A-2K-NS4B proportion in lysate ([1]; WT, 5 nM): 60.94% and 43.36% and 51.87% | NS4B proportion in lysate ([1]; WT, 5 nM): 35.35% and 49.69% and 41.25% | 2K-NS4B proportion in lysate ([1]; WT, 10 nM): 3.62% and 6.23% and 4.49% | NS4A-2K-NS4B proportion in lysate ([1]; WT, 10 nM): 59.94% and 47.30% and 50.84% | NS4B proportion in lysate ([1]; WT, 10 nM): 36.44% and 46.47% and 44.67% | 2K-NS4B proportion in lysate ([1]; WT, 50 nM): 5.23% and 6.22% and 5.06% | NS4A-2K-NS4B proportion in lysate ([1]; WT, 50 nM): 53.55% and 57.44% and 58.39% | NS4B proportion in lysate ([1]; WT, 50 nM): 41.22% and 36.34% and 36.55% | EC50 ([1]; read-out: EC50 (2k-4B), Input, WT, single replicates): 0.491 nM and 0.62 nM and 4.06 nM | IgG and IgM seroconversion (DENV-2/16681): occurred in all of the animals | IgM seroconversion (DENV-2/16681): occurred at later timepoints | animals with detectable anti-DENV IgM (DENV-2/16681): one out of three | IgM and IgG responses (DENV-1/45AZ5; 6 mg per kg per day q.d.): undetectable | IgG ELISA Titer (DENV-1/45AZ5; animal R7, Day 0): 100 | IgM ELISA Titer (DENV-1/45AZ5; animal R7, Day 0): 100 | IgG ELISA Titer (DENV-1/45AZ5; animal R7, Day 5): 100 | IgM ELISA Titer (DENV-1/45AZ5; animal R7, Day 5): 100 | IgG ELISA Titer (DENV-1/45AZ5; animal R7, Day 7): 100 | IgM ELISA Titer (DENV-1/45AZ5; animal R7, Day 7): 100 | IgG ELISA Titer (DENV-1/45AZ5; animal R7, Day 9): 100 | IgM ELISA Titer (DENV-1/45AZ5; animal R7, Day 9): 100 | IgG ELISA Titer (DENV-1/45AZ5; animal R7, Day 11): 100 | IgM ELISA Titer (DENV-1/45AZ5; animal R7, Day 11): 100 | IgG ELISA Titer (DENV-1/45AZ5; animal R7, Day 14): 100 | IgM ELISA Titer (DENV-1/45AZ5; animal R7, Day 14): 100 | IgG ELISA Titer (DENV-1/45AZ5; animal R7, Day 29): 100 | IgM ELISA Titer (DENV-1/45AZ5; animal R7, Day 29): 100 | IgG ELISA Titer (DENV-1/45AZ5; animal R8, Day 0): 100
